Results published in paper PMC9950431, “A bivalent remipede toxin promotes calcium release via ryanodine receptor activation” (Nature Communications, 2023).

Key:
RyR2 = experiment: Washout (reversibility/avidity) single channel experiments, RyR2; assay type: biochemical, sheep (cardiac SR); conditions: 10 nM and 1 μM
Method: Cardiac SR was prepared from mature female crossbred sheep hearts, and skeletal SR vesicles were isolated from the back and leg muscles of mature female New Zealand white rabbits[29],[54] with approval from the ANU Animal Experiment Ethics Committee Protocol Number A2015/35. […] Solutions for vesicle incorporation contained (mM): cis 230 caesium methanesulfonate (CsMS); 20 CsCl; 1 CaCl2 and 10 […] (TES) pH 7.4 and trans 30 CsMS; 20 CsCl; 1 CaCl2 10 TES; pH 7.4. SR vesicles routinely incorporated with the cytoplasmic surface of the SR and RyR facing the cis chamber. Following incorporation, 200 mM CsMS was added to the trans solution and the cis solution exchanged with recording solution containing (mM): 230 CsMS; 20 CsCl; 0.001 CaCl2;10 TES and pH 7.4, with [Ca^2+] set by a [BAPTA] determined using a Ca^2+ electrode. […] Electrophysiology experiments were analysed using Channel 2 (P.W. Gage, M. Smith, Australian National University) and Channel 3 (N.W. Laver, University of Newcastle, Australia) software, available from the authors upon request. […] Following most incorporation events, a single channel only was active in the bilayer and channel open probability (Po), mean open time (To), mean closed time (Tc) and open event frequency (Fo) were measured. […] In all experiments control channel activity was recorded for 3 to 5 min before exposure to the test compound. […]

ryanodine receptor = biological target: T1, ryanodine receptor (Oryctolagus cuniculus, UniProt P11716); experiment: Single channel recording with Xt3a exposure, sheet "Figure 3B" (RyR isoform not given); assay type: biochemical
T1 construct: skeletal SR vesicles were isolated from the back and leg muscles of mature female New Zealand white rabbits; from tissue; host or cells: rabbit back and leg skeletal muscle, sarcoplasmic reticulum vesicles
T1 sequence (P11716 whole entry, canonical isoform): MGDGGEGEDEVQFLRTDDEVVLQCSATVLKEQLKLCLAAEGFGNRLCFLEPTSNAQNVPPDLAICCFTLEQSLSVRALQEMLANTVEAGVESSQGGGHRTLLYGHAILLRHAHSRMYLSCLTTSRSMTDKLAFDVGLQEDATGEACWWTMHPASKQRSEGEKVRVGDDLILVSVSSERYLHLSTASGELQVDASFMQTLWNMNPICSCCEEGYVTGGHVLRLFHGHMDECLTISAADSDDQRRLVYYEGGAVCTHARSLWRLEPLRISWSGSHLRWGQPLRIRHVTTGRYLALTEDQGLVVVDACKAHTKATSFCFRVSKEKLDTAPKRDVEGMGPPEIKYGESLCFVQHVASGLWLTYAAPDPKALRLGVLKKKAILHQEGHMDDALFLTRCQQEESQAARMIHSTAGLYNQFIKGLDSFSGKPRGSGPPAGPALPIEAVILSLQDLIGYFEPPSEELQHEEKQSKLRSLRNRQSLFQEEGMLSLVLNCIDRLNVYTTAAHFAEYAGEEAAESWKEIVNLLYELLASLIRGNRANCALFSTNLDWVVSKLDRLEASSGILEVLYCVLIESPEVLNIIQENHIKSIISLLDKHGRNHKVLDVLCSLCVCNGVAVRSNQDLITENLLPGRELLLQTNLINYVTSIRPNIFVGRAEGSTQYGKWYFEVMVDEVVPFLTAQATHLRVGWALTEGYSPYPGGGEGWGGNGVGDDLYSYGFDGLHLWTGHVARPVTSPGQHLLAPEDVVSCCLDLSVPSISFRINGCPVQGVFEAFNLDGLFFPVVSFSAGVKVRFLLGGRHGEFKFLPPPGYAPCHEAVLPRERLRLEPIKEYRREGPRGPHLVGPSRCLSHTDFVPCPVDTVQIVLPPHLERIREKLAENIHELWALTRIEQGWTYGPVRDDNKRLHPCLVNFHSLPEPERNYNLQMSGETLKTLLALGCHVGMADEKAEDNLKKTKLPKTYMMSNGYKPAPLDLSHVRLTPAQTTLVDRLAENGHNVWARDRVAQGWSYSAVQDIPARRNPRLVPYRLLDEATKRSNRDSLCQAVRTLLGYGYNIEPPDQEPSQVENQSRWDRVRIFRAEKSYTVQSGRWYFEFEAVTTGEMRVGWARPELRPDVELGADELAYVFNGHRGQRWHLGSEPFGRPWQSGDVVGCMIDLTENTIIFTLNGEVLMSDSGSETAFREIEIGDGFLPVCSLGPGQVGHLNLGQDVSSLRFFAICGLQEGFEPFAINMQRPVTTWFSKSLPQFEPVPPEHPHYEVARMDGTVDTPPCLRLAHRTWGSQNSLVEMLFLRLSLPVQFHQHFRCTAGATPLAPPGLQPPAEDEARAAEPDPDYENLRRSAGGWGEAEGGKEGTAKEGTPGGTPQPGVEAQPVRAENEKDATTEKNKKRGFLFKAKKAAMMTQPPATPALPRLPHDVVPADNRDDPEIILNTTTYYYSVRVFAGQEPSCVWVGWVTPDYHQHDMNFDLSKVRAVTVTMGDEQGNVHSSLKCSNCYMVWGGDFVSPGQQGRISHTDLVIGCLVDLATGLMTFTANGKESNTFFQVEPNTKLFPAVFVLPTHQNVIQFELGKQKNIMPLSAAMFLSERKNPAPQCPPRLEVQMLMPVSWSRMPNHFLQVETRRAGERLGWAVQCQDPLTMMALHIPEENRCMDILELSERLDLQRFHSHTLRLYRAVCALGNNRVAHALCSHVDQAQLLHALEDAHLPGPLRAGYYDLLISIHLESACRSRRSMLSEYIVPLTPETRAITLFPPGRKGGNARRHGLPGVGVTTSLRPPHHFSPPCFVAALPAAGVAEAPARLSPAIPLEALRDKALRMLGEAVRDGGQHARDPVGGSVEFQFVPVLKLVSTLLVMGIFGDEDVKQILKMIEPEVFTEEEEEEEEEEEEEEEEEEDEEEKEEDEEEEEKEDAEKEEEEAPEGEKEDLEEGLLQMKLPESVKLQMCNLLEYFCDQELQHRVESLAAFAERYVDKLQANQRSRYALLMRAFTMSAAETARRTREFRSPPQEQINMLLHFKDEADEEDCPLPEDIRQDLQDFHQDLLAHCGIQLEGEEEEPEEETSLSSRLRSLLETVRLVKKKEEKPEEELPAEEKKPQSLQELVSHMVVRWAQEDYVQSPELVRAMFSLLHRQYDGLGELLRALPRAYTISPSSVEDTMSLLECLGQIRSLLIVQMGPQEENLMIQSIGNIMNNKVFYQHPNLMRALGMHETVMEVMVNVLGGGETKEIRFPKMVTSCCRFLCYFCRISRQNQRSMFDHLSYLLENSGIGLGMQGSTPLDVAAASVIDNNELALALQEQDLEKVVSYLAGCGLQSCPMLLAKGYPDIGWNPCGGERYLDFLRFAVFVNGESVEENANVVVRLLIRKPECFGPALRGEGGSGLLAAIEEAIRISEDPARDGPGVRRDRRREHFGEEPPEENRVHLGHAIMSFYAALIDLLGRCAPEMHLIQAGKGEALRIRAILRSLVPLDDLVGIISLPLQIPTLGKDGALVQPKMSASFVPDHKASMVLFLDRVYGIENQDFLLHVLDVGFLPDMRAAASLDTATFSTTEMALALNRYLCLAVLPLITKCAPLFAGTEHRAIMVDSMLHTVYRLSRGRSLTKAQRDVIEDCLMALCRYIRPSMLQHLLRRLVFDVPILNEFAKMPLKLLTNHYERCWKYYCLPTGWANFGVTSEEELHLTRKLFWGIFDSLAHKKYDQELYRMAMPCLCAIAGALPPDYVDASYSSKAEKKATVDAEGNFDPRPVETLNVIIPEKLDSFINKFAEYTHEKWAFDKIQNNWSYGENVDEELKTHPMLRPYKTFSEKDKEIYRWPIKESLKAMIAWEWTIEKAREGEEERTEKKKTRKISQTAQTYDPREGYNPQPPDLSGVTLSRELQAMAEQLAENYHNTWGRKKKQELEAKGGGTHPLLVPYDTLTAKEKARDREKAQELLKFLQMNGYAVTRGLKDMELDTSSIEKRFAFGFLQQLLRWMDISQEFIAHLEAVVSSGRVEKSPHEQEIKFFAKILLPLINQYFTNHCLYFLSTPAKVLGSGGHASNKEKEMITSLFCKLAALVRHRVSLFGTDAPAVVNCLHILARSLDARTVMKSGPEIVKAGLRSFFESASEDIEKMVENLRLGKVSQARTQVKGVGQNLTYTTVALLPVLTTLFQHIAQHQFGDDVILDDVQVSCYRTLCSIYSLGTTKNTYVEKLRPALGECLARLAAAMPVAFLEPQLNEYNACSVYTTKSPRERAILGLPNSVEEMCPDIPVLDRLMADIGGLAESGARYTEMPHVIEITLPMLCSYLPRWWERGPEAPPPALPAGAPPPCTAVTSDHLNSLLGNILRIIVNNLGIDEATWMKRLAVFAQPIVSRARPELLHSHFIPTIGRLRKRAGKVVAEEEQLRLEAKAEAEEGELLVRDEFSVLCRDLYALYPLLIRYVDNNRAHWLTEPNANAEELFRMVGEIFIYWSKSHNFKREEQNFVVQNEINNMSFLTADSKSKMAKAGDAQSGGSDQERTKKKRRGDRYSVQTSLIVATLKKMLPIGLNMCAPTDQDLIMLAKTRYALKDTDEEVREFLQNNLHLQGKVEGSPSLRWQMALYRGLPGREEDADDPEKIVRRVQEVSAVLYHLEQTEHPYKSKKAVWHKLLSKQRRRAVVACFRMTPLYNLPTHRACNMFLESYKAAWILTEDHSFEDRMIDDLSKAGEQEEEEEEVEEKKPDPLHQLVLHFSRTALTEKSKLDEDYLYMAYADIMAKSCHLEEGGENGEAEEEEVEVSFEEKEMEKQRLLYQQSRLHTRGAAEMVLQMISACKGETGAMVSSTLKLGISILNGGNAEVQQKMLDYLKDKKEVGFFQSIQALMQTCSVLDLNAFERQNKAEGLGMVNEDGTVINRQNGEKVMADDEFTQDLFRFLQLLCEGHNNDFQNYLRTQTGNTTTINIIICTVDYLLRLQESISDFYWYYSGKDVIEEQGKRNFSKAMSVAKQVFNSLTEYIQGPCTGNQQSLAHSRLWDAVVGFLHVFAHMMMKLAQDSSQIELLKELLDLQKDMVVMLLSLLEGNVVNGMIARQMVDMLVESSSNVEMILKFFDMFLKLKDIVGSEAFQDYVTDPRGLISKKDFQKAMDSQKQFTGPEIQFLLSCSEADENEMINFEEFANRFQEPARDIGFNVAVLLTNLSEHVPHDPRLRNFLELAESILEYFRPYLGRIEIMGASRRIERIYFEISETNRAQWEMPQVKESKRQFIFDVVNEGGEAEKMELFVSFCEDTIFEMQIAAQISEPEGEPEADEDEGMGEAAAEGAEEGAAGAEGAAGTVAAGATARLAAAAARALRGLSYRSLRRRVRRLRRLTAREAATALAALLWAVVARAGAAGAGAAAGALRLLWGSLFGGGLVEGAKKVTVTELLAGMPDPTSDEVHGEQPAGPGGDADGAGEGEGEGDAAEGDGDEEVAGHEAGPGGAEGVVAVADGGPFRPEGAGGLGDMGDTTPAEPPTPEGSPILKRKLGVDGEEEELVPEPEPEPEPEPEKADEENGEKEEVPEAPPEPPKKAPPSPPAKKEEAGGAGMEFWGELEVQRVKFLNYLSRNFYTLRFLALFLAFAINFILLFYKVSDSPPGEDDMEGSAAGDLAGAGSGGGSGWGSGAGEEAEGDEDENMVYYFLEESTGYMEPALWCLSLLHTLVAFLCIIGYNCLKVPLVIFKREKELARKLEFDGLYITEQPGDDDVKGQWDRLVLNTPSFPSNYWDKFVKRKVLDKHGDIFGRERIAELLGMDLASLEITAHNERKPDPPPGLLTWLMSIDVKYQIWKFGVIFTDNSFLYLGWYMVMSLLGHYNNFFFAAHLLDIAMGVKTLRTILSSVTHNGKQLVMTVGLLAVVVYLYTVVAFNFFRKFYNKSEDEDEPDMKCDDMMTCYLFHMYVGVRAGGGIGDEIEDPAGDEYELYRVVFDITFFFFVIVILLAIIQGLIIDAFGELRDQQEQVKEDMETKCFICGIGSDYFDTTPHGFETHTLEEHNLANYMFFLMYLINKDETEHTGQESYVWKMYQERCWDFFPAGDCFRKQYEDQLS

With φ-Xibalbin3-Xt3a the “channel activity during washout” value (RyR2) was “activity did appear to increase somewhat during washout”, the “rel Po” value (ryanodine receptor; 1nM Xt3a vs 1 micoM Ca, CT1124n) was 0.8977 and the “rel Po” value (ryanodine receptor; 1nM Xt3a vs 1 micoM Ca, CT1124p) was 0.6333. The “rel Po” value (ryanodine receptor; 1nM Xt3a vs 1 micoM Ca, CT1125p (r7)) was 0.7826, the “rel Po” value (ryanodine receptor; 1nM Xt3a vs 1 micoM Ca, CT1125p (r12)) was 0.3373 and the “rel Po” value (ryanodine receptor; 1nM Xt3a vs 1 micoM Ca, CT1126n) was 1.286. For the same substance, the “rel Po” value (ryanodine receptor; 1nM Xt3a vs 1 micoM Ca, CT1126p) was 0.0123, the “rel Po” value (ryanodine receptor; 1nM Xt3a vs 1 micoM Ca, CT1129p) was 0.92 and the “rel Po” value (ryanodine receptor; 1nM Xt3a vs 1 micoM Ca, mean of 7 records) was 0.6956. The “rel Po” value (ryanodine receptor; 10nM Xt3a vs 1 micoM Ca, CT1124n) was 0.4488, the “rel Po” value (ryanodine receptor; 10nM Xt3a vs 1 micoM Ca, CT1124p) was 0.3778 and the “rel Po” value (ryanodine receptor; 10nM Xt3a vs 1 micoM Ca, CT1125p (r7)) was 1.957. For the same substance, the “rel Po” value (ryanodine receptor; 10nM Xt3a vs 1 micoM Ca, CT1125p (r12)) was 1.108, the “rel Po” value (ryanodine receptor; 10nM Xt3a vs 1 micoM Ca, CT1126n) was 2.128 and the “rel Po” value (ryanodine receptor; 10nM Xt3a vs 1 micoM Ca, CT1126p) was 0.02049. For the same substance, the “rel Po” value (ryanodine receptor; 10nM Xt3a vs 1 micoM Ca, CT1129p) was 0.23, the “rel Po” value (ryanodine receptor; 10nM Xt3a vs 1 micoM Ca, mean of 7 records) was 0.8957 and the “rel Po” value (ryanodine receptor; 100nM Xt3a vs 1 micoM Ca, CT1134 n) was 0.7716. For the same substance, the “rel Po” value (ryanodine receptor; 100nM Xt3a vs 1 micoM Ca, CT1134 p) was 1.135, the “rel Po” value (ryanodine receptor; 100nM Xt3a vs 1 micoM Ca, CT1135 n) was 0.4052 and the “rel Po” value (ryanodine receptor; 100nM Xt3a vs 1 micoM Ca, CT1135 p) was 0.4783. For the same substance, the “rel Po” value (ryanodine receptor; 100nM Xt3a vs 1 micoM Ca, CT1136 n) was 1.741, the “rel Po” value (ryanodine receptor; 100nM Xt3a vs 1 micoM Ca, CT1136 p) was 0.75 and the “rel Po” value (ryanodine receptor; 100nM Xt3a vs 1 micoM Ca, CT1137 n) was 0.9231. For the same substance, the “rel Po” value (ryanodine receptor; 100nM Xt3a vs 1 micoM Ca, CT1137p) was 4, the “rel Po” value (ryanodine receptor; 100nM Xt3a vs 1 micoM Ca, CT1138n) was 4.333 and the “rel Po” value (ryanodine receptor; 100nM Xt3a vs 1 micoM Ca, CT1138p) was 1.4. The “rel Po” value (ryanodine receptor; 100nM Xt3a vs 1 micoM Ca, mean of 10 records) was 1.5937, the “rel Po” value (ryanodine receptor; 1 microM Xt3a vs 1 micoM Ca, CT1134 n) was 1.472 and the “rel Po” value (ryanodine receptor; 1 microM Xt3a vs 1 micoM Ca, CT1134 p) was 4.143. For the same substance, the “rel Po” value (ryanodine receptor; 1 microM Xt3a vs 1 micoM Ca, CT1135 n) was 32.1638, the “rel Po” value (ryanodine receptor; 1 microM Xt3a vs 1 micoM Ca, CT1136 n) was 1 and the “rel Po” value (ryanodine receptor; 1 microM Xt3a vs 1 micoM Ca, CT1136 p) was 0.625. The “rel Po” value (ryanodine receptor; 1 microM Xt3a vs 1 micoM Ca, CT1137 n) was 1.769, the “rel Po” value (ryanodine receptor; 1 microM Xt3a vs 1 micoM Ca, CT1137p) was 2 and the “rel Po” value (ryanodine receptor; 1 microM Xt3a vs 1 micoM Ca, CT1138n) was 1.286. The “rel Po” value (ryanodine receptor; 1 microM Xt3a vs 1 micoM Ca, CT1138p) was 0.9 and the “rel Po” value (ryanodine receptor; 1 microM Xt3a vs 1 micoM Ca, mean (CT1135 p cell empty)) was 5.04.
